For the data set the following is noted: pH 3.

With `C=CCC1(CC(C)C)C(=O)NC(=O)NC1=O` [Butalbital, 5-(2-Methylpropyl)-5-(2-propenyl)-2,4,6(1H,3H,5H) -pyrim idinetrione], the average degradation is listed as 1.2%.

The values are drawn from patent US7410635B2 (priority 2003, dated 2008).
